{"source": "patent EP0332295A2", "about": "“Novel imidazole derivative” (priority 1988, dated 1989)", "key": {"[1]": {"test_system": "mice", "experiment": "Anti-hypoxia action (hypobaric hypoxia, existence time at 180 mmHg, life prolongation ratio)", "type": "in vivo", "details": "male ddy mice, administered in the abdominal cavity at 25 mg/kg, 30 minutes before pressure reduction to 180 mmHg, ratio of existence time to saline control (cut-off 15 minutes); for response vs control in vivo at 25 mg/kg: Mus musculus, ip", "procedure": "With respect to each of the above-mentioned compounds (compounds Nos. 1 through 54), the anti-hypoxia action was tested according to the following method and was evaluated by the life prolongation ratio.\nMale mice if the ddy-line, which were 5 to 8 weeks old, were used as test animals, and they were divided into groups, each consisting of 7 to 10 mice. The compound to be tested was dissolved in a physiological saline solution. If the compound to be tested was insoluble, the compound was suspended in 1% gum arabic. The solution or suspension was administered in the abdominal cavity at a does of 25 mg/kg and when 30 minutes had passed from the point of the administration, the mice were independently placed one by one into a desiccator (capacity = 1 liter) and the pressure in the desiccator was reduced to 180 mmHg by a vacuum pump.\nThe period of from the point of initiation of the reduction of the pressure to the point of the stop of breathing was regarded as the existence time. When the mouse lived for more than 15 minutes, the calculation was done while regarding the existence time as being 15 minutes.\nThe significant difference test of the existence time was carried out according to the student t-test method using controls to which a physiological saline solution alone had been administered. The ratio of the existence time of the sample-administered group to the existence time of the physiological saline solution-administered control group was calculated as the life prolongation ratio."}, "[2]": {"test_system": "mice", "experiment": "Anti-hypoxia action (hypobaric hypoxia, existence time at 180 mmHg, life prolongation ratio)", "type": "in vivo", "details": "Mus musculus, ip, male ddy mice, 30 minutes before pressure reduction to 180 mmHg, ratio of existence time to saline control; for response vs control in vivo at 12.5 mg/kg: administration dose = 12.5 mg/kg in the abdominal cavity; for response vs control in vivo at 50 mg/kg: administration dose = 50 mg/kg in the abdominal cavity"}}, "data": [{"smiles": "CCN(CC)C(=O)n1cnc(Cc2c(C)cccc2C)c1", "note": "[compound 13]", "values": [{"measurement": "response vs control in vivo at 25 mg/kg", "setting": "[1]", "result": 281, "unit": "%"}]}, {"smiles": "CN(C)C(=O)Sc1nc(-c2ccc(Cl)cc2)c[nH]1", "note": "[compound 48]", "values": [{"measurement": "response vs control in vivo at 12.5 mg/kg", "setting": "[2]", "result": 115, "unit": "%"}]}, {"smiles": "CN(C)C(=O)n1cnc(C[n+]2ccccc2)c1", "note": "[compound 19]", "values": [{"measurement": "Life Prolongation Ratio", "setting": "[1]", "result": 1.09}]}, {"smiles": "O=C(Sc1nc(-c2ccccc2)c[nH]1)N1CCCc2ccccc21", "note": "[compound 41]", "values": [{"measurement": "response vs control in vivo at 12.5 mg/kg", "setting": "[2]", "result": 76, "unit": "%"}]}, {"smiles": "O=C(Sc1nc(-c2ccccc2)c[nH]1)N1CCCC1", "note": "[compound 36]", "values": [{"measurement": "response vs control in vivo at 12.5 mg/kg", "setting": "[2]", "result": 94, "unit": "%"}]}, {"smiles": "CN(C)C(=O)Sc1nc(-c2ccccc2)cn1-c1ccc([N+](=O)[O-])cn1", "note": "[compound 28, 2-(N,N-dimethylcarbamoylthio)-1-(5-nitropyridinyl)-4-phenylimidazole]", "values": [{"measurement": "response vs control in vivo at 25 mg/kg", "setting": "[1]", "result": 102, "unit": "%"}]}, {"smiles": "Cc1cccc(C)c1Cc1cn(C(=O)N(C)C2CCCCC2)cn1", "note": "[compound 10]", "values": [{"measurement": "response vs control in vivo at 25 mg/kg", "setting": "[1]", "result": 253, "unit": "%"}]}, {"smiles": "COc1ccc(-c2c[nH]c(SC(=O)N(C)C)n2)cc1", "note": "[compound 47]", "values": [{"measurement": "response vs control in vivo at 25 mg/kg", "setting": "[1]", "result": 165, "unit": "%"}]}, {"smiles": "Cc1cc(C)c(Cc2cn(C(=O)N(C)C)cn2)c(C)c1", "note": "[compound 4]", "values": [{"measurement": "response vs control in vivo at 25 mg/kg", "setting": "[1]", "result": 184, "unit": "%"}]}, {"smiles": "O=C(Sc1nc(-c2ccccc2)c[nH]1)N1CCCCC1", "note": "[compound 37]", "values": [{"measurement": "response vs control in vivo at 12.5 mg/kg", "setting": "[2]", "result": 85, "unit": "%"}]}, {"smiles": "CN(C)C(=O)Sc1nc(-c2ccccc2)cn1-c1ncccc1[N+](=O)[O-]", "note": "[compound 29]", "values": [{"measurement": "response vs control in vivo at 25 mg/kg", "setting": "[1]", "result": 110, "unit": "%"}]}, {"smiles": "CN(C)C(=O)n1cnc(Cc2ccccc2)c1", "note": "[compound 1, 4-benzyl-1-(N,N-dimethylcarbamoyl)imidazole]", "values": [{"measurement": "response vs control in vivo at 25 mg/kg", "setting": "[1]", "result": 85, "unit": "%"}]}, {"smiles": "Cc1cccc(C)c1Cc1cn(C(=O)N2CCOCC2)cn1", "note": "[compound 17]", "values": [{"measurement": "response vs control in vivo at 25 mg/kg", "setting": "[1]", "result": 165, "unit": "%"}]}, {"smiles": "CN(C)C(=O)Sc1nccn1-c1ccc([N+](=O)[O-])cn1", "note": "[compound 51]", "values": [{"measurement": "response vs control in vivo at 50 mg/kg", "setting": "[2]", "result": 245, "unit": "%"}]}, {"smiles": "C=CCN(C)C(=O)n1cnc(Cc2c(C)cccc2C)c1", "note": "[compound 11]", "values": [{"measurement": "response vs control in vivo at 25 mg/kg", "setting": "[1]", "result": 255, "unit": "%"}]}, {"smiles": "Cc1[nH]c(SC(=O)N(C)C)nc1-c1ccccc1", "note": "[compound 42]", "values": [{"measurement": "response vs control in vivo at 25 mg/kg", "setting": "[1]", "result": 192, "unit": "%"}]}, {"smiles": "CN(C)C(=O)Sc1nc(-c2ccccc2)cn1C(=O)N(C)C", "note": "[compound 30, 1-(N,N-dimethylcarbamoyl)-2-(N,N-dimethylcarbamoylthio)-4-phenylimidazole]", "values": [{"measurement": "response vs control in vivo at 25 mg/kg", "setting": "[1]", "result": 115, "unit": "%"}]}, {"smiles": "CC(C)n1cc(-c2ccccc2)nc1SC(=O)N(C)C", "note": "[compound 25]", "values": [{"measurement": "response vs control in vivo at 25 mg/kg", "setting": "[1]", "result": 119, "unit": "%"}]}, {"smiles": "Cc1ccc(-c2c[nH]c(SC(=O)N(C)C)n2)cc1", "note": "[compound 46]", "values": [{"measurement": "response vs control in vivo at 12.5 mg/kg", "setting": "[2]", "result": 95, "unit": "%"}]}, {"smiles": "CN(C)C(=O)Sc1nc(-c2ccccc2)cn1-c1ccccc1", "note": "[compound 27]", "values": [{"measurement": "response vs control in vivo at 25 mg/kg", "setting": "[1]", "result": 146, "unit": "%"}]}, {"smiles": "CN(C)C(=O)Sc1nccn1-c1ncccc1[N+](=O)[O-]", "note": "[compound 52]", "values": [{"measurement": "response vs control in vivo at 50 mg/kg", "setting": "[2]", "result": 192, "unit": "%"}]}, {"smiles": "O=C(Sc1nc(-c2ccccc2)cn1C(=O)N1CCCCC1)N1CCCCC1", "note": "[compound 38]", "values": [{"measurement": "response vs control in vivo at 25 mg/kg", "setting": "[1]", "result": 113, "unit": "%"}]}, {"smiles": "CCCn1cc(-c2ccccc2)nc1SC(=O)N(C)C", "note": "[compound 24]", "values": [{"measurement": "response vs control in vivo at 25 mg/kg", "setting": "[1]", "result": 163, "unit": "%"}]}, {"smiles": "CCn1cc(-c2ccccc2)nc1SC(=O)N(C)C", "note": "[compound 23]", "values": [{"measurement": "response vs control in vivo at 25 mg/kg", "setting": "[1]", "result": 264, "unit": "%"}]}, {"smiles": "CN(C)C(=O)Sc1nc(-c2ccccc2)cn1C1CCCCC1", "note": "[compound 26]", "values": [{"measurement": "response vs control in vivo at 25 mg/kg", "setting": "[1]", "result": 132, "unit": "%"}]}, {"smiles": "CON(C)C(=O)n1cnc(Cc2c(C)cccc2C)c1", "note": "[compound 12]", "values": [{"measurement": "response vs control in vivo at 25 mg/kg", "setting": "[1]", "result": 109, "unit": "%"}]}, {"smiles": "Cn1c(=O)sc2nc(-c3ccccc3)cn2c1=O", "note": "[compound 53, 3-methyl-7-phenyl-1,3,5-thiadiazino[3,2-a]imidazole-2,4(3H)-dione]", "values": [{"measurement": "response vs control in vivo at 25 mg/kg", "setting": "[1]", "result": 145, "unit": "%"}]}, {"smiles": "Cc1cccc(C)c1Cc1cn(C(=O)N2CCCCC2)cn1", "note": "[compound 14]", "values": [{"measurement": "response vs control in vivo at 25 mg/kg", "setting": "[1]", "result": 270, "unit": "%"}]}, {"smiles": "CCCN(CCC)C(=O)Sc1nc(-c2ccccc2)c[nH]1", "note": "[compound 35]", "values": [{"measurement": "response vs control in vivo at 12.5 mg/kg", "setting": "[2]", "result": 87, "unit": "%"}]}, {"smiles": "CN(C)C(=O)Sc1nc(-c2ccccc2)cn1C", "note": "[compound 22]", "values": [{"measurement": "response vs control in vivo at 25 mg/kg", "setting": "[1]", "result": 230, "unit": "%"}]}, {"smiles": "Cc1cccc(C)c1Cc1cn(C(=O)N(C)C)cn1", "note": "[compound 2]", "values": [{"measurement": "response vs control in vivo at 25 mg/kg", "setting": "[1]", "result": 305, "unit": "%"}]}, {"smiles": "CN(C)C(=O)Sc1nc(-c2ccc(-c3ccccc3)cc2)c[nH]1", "note": "[compound 49]", "values": [{"measurement": "response vs control in vivo at 25 mg/kg", "setting": "[1]", "result": 127, "unit": "%"}]}, {"smiles": "CCN(CC)C(=O)Sc1nc(-c2ccccc2)c[nH]1", "note": "[compound 34]", "values": [{"measurement": "response vs control in vivo at 12.5 mg/kg", "setting": "[2]", "result": 100, "unit": "%"}]}, {"smiles": "CN(C)C(=O)Sc1nc(-c2ccccc2)c[nH]1", "note": "[compound 21, 2-(N,N-dimethylcarbamoylthio)-4-phenylimidazole]", "values": [{"measurement": "response vs control in vivo at 25 mg/kg", "setting": "[1]", "result": 283, "unit": "%"}]}, {"smiles": "O=C(Sc1nc(-c2ccccc2)c[nH]1)N1CCSCC1", "note": "[compound 40]", "values": [{"measurement": "response vs control in vivo at 12.5 mg/kg", "setting": "[2]", "result": 93, "unit": "%"}]}, {"smiles": "CC(=O)n1cc(-c2ccccc2)nc1SC(=O)N(C)C", "note": "[compound 32]", "values": [{"measurement": "response vs control in vivo at 25 mg/kg", "setting": "[1]", "result": 281, "unit": "%"}]}, {"smiles": "CCOC(=O)n1cnc(Cc2c(C)cccc2C)c1", "note": "[compound 18]", "values": [{"measurement": "response vs control in vivo at 25 mg/kg", "setting": "[1]", "result": 182, "unit": "%"}]}, {"smiles": "O=C(Sc1nc(-c2ccccc2)c[nH]1)N1CCOCC1", "note": "[compound 39]", "values": [{"measurement": "response vs control in vivo at 12.5 mg/kg", "setting": "[2]", "result": 104, "unit": "%"}]}, {"smiles": "CC(=O)n1cc(-c2ccccc2)nc1SC(=O)N(C)C(C)C", "note": "[compound 33]", "values": [{"measurement": "response vs control in vivo at 25 mg/kg", "setting": "[1]", "result": 127, "unit": "%"}]}, {"smiles": "CN(C)C(=O)Sc1nccn1-c1ccccc1", "note": "[compound 50]", "values": [{"measurement": "response vs control in vivo at 25 mg/kg", "setting": "[1]", "result": 127, "unit": "%"}]}, {"smiles": "Cc1cccc(C)c1Cc1cn(C(=O)N(C)C(C)C)cn1", "note": "[compound 9]", "values": [{"measurement": "response vs control in vivo at 25 mg/kg", "setting": "[1]", "result": 466, "unit": "%"}]}, {"smiles": "Cc1ccccc1-c1c[nH]c(SC(=O)N(C)C)n1", "note": "[compound 45]", "values": [{"measurement": "response vs control in vivo at 25 mg/kg", "setting": "[1]", "result": 192, "unit": "%"}]}, {"smiles": "CCc1[nH]c(SC(=O)N(C)C)nc1-c1ccccc1", "note": "[compound 43]", "values": [{"measurement": "response vs control in vivo at 25 mg/kg", "setting": "[1]", "result": 121, "unit": "%"}]}, {"smiles": "CCn1c(=O)sc2nc(-c3ccccc3)cn2c1=O", "note": "[compound 54]", "values": [{"measurement": "response vs control in vivo at 25 mg/kg", "setting": "[1]", "result": 137, "unit": "%"}]}, {"smiles": "Cc1cccc(C)c1Cc1cn(C(=S)N(C)C)cn1", "note": "[compound 20]", "values": [{"measurement": "response vs control in vivo at 25 mg/kg", "setting": "[1]", "result": 243, "unit": "%"}]}, {"smiles": "CCOC(=O)n1cc(-c2ccccc2)nc1SC(=O)N(C)C", "note": "[compound 31]", "values": [{"measurement": "response vs control in vivo at 25 mg/kg", "setting": "[1]", "result": 123, "unit": "%"}]}, {"smiles": "CCOC(=O)c1[nH]c(SC(=O)N(C)C)nc1-c1ccccc1", "note": "[compound 44]", "values": [{"measurement": "response vs control in vivo at 25 mg/kg", "setting": "[1]", "result": 143, "unit": "%"}]}]}
